# Measurements taken from US5710130A, “Antithrombotic agents” (Eli Lilly and Company, priority 1995, dated 1998).
# Structures can show the parent of a compound that is named as a salt.
# Legend:
# human plasma [1] = assay: Human plasma anticoagulation, thrombin time (TT); format: biochemical; settings: concentration required to double thrombin time, linear extrapolation
# Method in brief: (§1)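 Compound was spiked over a wide concentration range into citrated human plasma, and clotting times were read on a coagulation instrument. PT was started with saline plus Thromboplastin-C. APTT used 120 s preincubation with Actin, then 0.02M CaCl2. TT used saline plus bovine thrombin (10 NIH units/mL). Doubling concentrations were obtained by linear extrapolation.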
# human plasma [2] = assay: Human plasma anticoagulation, activated partial thromboplastin time (APTT); format: biochemical; settings: concentration required to double APTT, linear extrapolation
# Method in brief: as §1
# [3] = Index of bioavailability (% Relative Activity) from plasma TT time course, oral vs i.v.; format: in vivo; settings: p.o. dose per legend (20, 60 or 50 mg/kg)
# Description: Parke Davis) at 37° C. […] Assays are done in duplicate and averaged. […] Each sample population represented alternating sequential time points.
# human plasma [4] = assay: Human plasma anticoagulation, prothrombin time (PT); format: biochemical; settings: concentration required to double PT, linear extrapolation
# Method in brief: as §1
# Human Thrombin = Human Thrombin (Homo sapiens, UniProt P00734); assay: Inhibition of thrombin amidase activity (Kass), chromogenic substrate; format: biochemical; settings: mean Kass over a range of concentrations; substrate N-benzoyl-Phe-Val-Arg-p-nitroanilide
# thrombin = settings: Bajusz et al., J. Med. Chem. 33, 1729-1735 (1990); cited from earlier work
# [5] = early clinical studies, Simoons et al., Circulation 90, I-231 (1994); cited from earlier work
# factor Xa = factor Xa (Homo sapiens, UniProt P00742); assay: Kass against factor Xa, chromogenic substrate; format: biochemical; settings: substrate N-Benzoyl-Ile-Glu-Gly-Arg-p-nitroanilide
# Sequence of factor Xa (P00742 235-488 limits assumed): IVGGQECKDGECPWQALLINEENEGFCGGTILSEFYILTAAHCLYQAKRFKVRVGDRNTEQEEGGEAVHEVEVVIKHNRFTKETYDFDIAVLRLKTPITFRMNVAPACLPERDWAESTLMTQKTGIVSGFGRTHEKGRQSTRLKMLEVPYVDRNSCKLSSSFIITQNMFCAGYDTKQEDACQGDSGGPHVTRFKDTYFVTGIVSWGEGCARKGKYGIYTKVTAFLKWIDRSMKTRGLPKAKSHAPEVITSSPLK
# Sequence of factor Xa (P00742 41-179 partner limits assumed): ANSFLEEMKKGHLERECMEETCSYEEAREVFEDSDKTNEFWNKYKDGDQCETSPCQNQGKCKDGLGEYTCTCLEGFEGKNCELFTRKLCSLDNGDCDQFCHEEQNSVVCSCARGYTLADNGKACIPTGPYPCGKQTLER
# [6] = target: T1, activated protein C (aPC) (Homo sapiens, UniProt P04070); assay: Inhibition of activated protein C (aPC), chromogenic substrate; format: biochemical; settings: statement in words
# T1 construct: made in house
# T1 sequence (P04070 212-450 limits assumed): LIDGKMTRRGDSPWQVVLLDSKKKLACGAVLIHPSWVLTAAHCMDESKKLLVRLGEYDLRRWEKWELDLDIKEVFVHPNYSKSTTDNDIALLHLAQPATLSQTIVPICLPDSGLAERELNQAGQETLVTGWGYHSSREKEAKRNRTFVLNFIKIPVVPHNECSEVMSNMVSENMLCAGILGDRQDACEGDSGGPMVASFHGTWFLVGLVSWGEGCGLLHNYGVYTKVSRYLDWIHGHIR
# T1 sequence (P04070 43-197 partner limits assumed): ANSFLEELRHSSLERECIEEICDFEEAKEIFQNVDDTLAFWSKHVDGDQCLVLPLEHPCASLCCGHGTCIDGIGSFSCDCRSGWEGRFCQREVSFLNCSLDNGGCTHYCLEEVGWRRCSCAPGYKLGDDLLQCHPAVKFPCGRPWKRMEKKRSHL
# Description: By substantially following the procedures described above for human thrombin, and using other human blood coagulation system serine proteases and proteases of the fibrinolytic system with the appropriate chromogenic substrates, identified below, selectivity of the compounds of the present invention with respect to the coagulation factor serine proteases and with respect to the fibrinolytic system serine proteases are evaluated as well as their substantial lack of interference with serine proteases of the fibrinolytic system. Thrombin inhibitors preferably should spare fibrinolysis induced by urokinase, tissue plasminogen activator (t-PA) and streptokinase. This would be important to the therapeutic use of such agents as an adjunct to streptokinase, t-PA or urokinase thrombolytic therapy and to the use of such agents as an endogenous fibrinolysis-sparing (with respect to t-PA and urokinase) antithrombotic agent. In addition to the lack of interference with the amidase activity of the fibrinolytic proteases, such fibrinolytic system sparing can be studied by the use of human plasma clots and their lysis by the respective fibrinolytic plasminogen activators.
# Human factors X, Xa, IXa, XIa, and XIIa are purchased from Enzyme Research Laboratories, South Bend, Ind.; human urokinase from Leo Pharmaceuticals, Denmark; and recombinant activated Protein C (aPC) is prepared at Eli Lilly and Co. substantially according to U.S. Pat. No. 4,981,952. Chromogenic substrates: N-Benzoyl-Ile-Glu-Gly-Arg-p-nitroanilide (for factor Xa); N-Cbz-D-Arg-Gly-Arg-p-nitroanilide (for factor IXa assay as the factor Xa substrate); Pyroglutamyl-Pro-Arg-p-nitroanilide (for Factor XIa and for aPC); H-D-Pro-Phe-Arg-p-nitroanilide (for factor XIIa); and Pyroglutamyl-Gly-Arg-p-nitroanilide (for urokinase); are purchased from KabiVitrum, Stockholm, Sweden, or from Midwest Biotech, Fishers, Ind.. Bovine trypsin is purchased from Worthington Biochemicals, Freehold, N.J., and human plasma kallikrein from Kabi Vitrum, Stockholm, Sweden. […]
"% oral/i.v. activity (Rat), screening not completed [3]",Kass Human Thrombin (Human Thrombin),Kass Xa (factor Xa),inhibition of activated protein C (aPC) [6],Structure (SMILES),Human Plasma Anticoagulation 2x Clotting time TT (human plasma [1]),Human Plasma Anticoagulation 2x Clotting time APTT (human plasma [2]),Human Plasma Anticoagulation 2x Clotting time PT (human plasma [4]),direct inhibition of thrombin (thrombin),anticoagulant in man [5]
NC^2,–,–,–,"CCS(=O)(=O)N[C@H](Cc1ccccc1)C(=O)N1[C@H](C(=O)NCc2ccc(C(=N)N)cc2)C[C@@H]2CCCC[C@@H]21 (relative stereo) [Example 45, hydrochloride]",8 ng/mL,200 ng/mL,330 ng/mL,–,–
NC^2,45 × 10^6 (L/mole),–,–,"N=C(N)c1ccc(CNC(=O)[C@@H]2C[C@@H]3CCCC[C@@H]3N2C(=O)[C@@H](Cc2ccccc2)NCC(=O)O)cc1 (relative stereo) [Example 47, HOOCCH2 -D-Phe-cis-Ohi-p-NHCH2 C6 H4 C(NH)NH2.HCl]",12 ng/mL,140 ng/mL,270 ng/mL,–,–
–,–,–,–,CC(C)(C)OC(=O)N[C@H](Cc1ccccc1)C(=O)N1CCC[C@H]1C(=O)N[C@H](C=O)CCCNC(=N)N [Boc-D-Phe-Pro-Arg-H],–,–,–,potent direct inhibition,–
–,–,–,–,CN[C@H](Cc1ccccc1)C(=O)N1CCC[C@H]1C(=O)N[C@H](C=O)CCCNC(=N)N.O=S(=O)(O)O [D-MePhe-Pro-Arg-H sulfate],–,–,–,–,is an anticoagulant in man
–,–,–,–,CN[C@H](Cc1ccccc1)C(=O)N1CCC[C@H]1C(=O)N[C@H](C=O)CCCNC(=N)N [D-MePhe-Pro-Arg-H],–,–,–,potent direct inhibition,–
–,–,–,–,N=C(N)NCCC[C@@H](C=O)NC(=O)[C@@H]1CCCN1C(=O)[C@H](N)Cc1ccccc1 [D-Phe-Pro-Arg-H],–,–,–,potent direct inhibition,–
–,0.02 × 10^6 (L/mole),< 0.009 × 10^6 (L/mole),–,"CCS(=O)(=O)N[C@H](Cc1ccccc1)C(=O)N1CCC[C@H]1C(=O)NCCc1cccc(N=C(N)N)c1.Cl [Example 37, EtSO2 -D-Phe-Pro-m-NHCH2 CH2 C6 H4 NHC(NH)NH2.HCl]","> 9,000 ng/mL","> 9,000 ng/mL","> 9,000 ng/mL",–,–
NC2,38 × 10^6 (L/mole),–,–,"Cl.Cl.N=C(N)c1ccc(CNC(=O)C2CC3CCCCC3N2C(=O)C2NCCC3CCCCC32)cc1 [Example 42, D-1-Piq-cis-Ohi-p-NHCH2 C6 H4 C(NH)NH2.2HCl]",20 ng/mL,270 ng/mL,320 ng/mL,–,–
NC^3,15 × 10^6 (L/mole),–,–,"Cl.Nc1ccc(CNC(=O)[C@@H]2CCCN2C(=O)[C@@H](CC2CCCCC2)NCC(=O)O)c(F)c1 [Example 64, HO2 CCH2 -D-Cha-Pro-4-NHCH2 -3-F-C6 H3 NH2.HCl]",23 ng/mL,900 ng/mL,650 ng/mL,–,–
–,–,–,very weak inhibition,"N=C(N)c1ccc(CNC(=O)[C@@H]2CCCN2C(=O)[C@@H](CC2CCCCC2)NCC(=O)O)nc1 [Example 66, N-(carboxymethyl)-D-cyclohexylalanyl-N-[[5-(aminoiminomethyl)pyridin-2-yl]methyl]-L-prolinamide hydrochloride]",7.9 ng/mL,180 ng/mL,270 ng/mL,–,–
–,340 × 10^6 (L/mole),–,very weak inhibition,"Cl.Cl.Cl.N=C(N)c1ccc(CNC(=O)[C@@H]2CCCN2C(=O)[C@@H](CC2CCCCC2)NCC(=O)O)nn1 [Example 69, N-(carboxymethyl)-D-cyclohexylalanyl-N-[[6-(aminoiminomethyl)pyridazin-3-yl]methyl]-L-prolinamide tri-hydrochloride]",5 ng/mL,110 ng/mL,220 ng/mL,–,–
NC^1,–,–,–,"N=C(N)c1ccc(CNC(=O)[C@@H]2CCCN2C(=O)[C@@H](CC2CCCCC2)NCC(=O)O)c(F)c1 [Example 71, N-(carboxymethyl)-D-cyclohexylalanyl-N-[[4-(aminoiminomethyl)-2-fluorophenyl]methyl]-L-prolinamide hydrochloride]",1 ng/mL,89 ng/mL,150 ng/mL,–,–
NC^1,–,–,–,"N=C(N)c1cc(F)c(CNC(=O)[C@@H]2CCCN2C(=O)[C@@H](CC2CCCCC2)NCC(=O)O)c(F)c1 [Example 72, N-(carboxymethyl)-D-cyclohexylalanyl-N-[[4-(aminoiminomethyl-2,6-difluorophenyl]methyl]-L-prolinamide hydrochloride]",1 ng/mL,160 ng/mL,160 ng/mL,–,–

Structure (SMILES),"% oral/i.v. activity (Rat), screening not completed [3]",Kass Human Thrombin (Human Thrombin),Kass Xa (factor Xa),inhibition of activated protein C (aPC) [6],Human Plasma Anticoagulation 2x Clotting time TT (human plasma [1]),Human Plasma Anticoagulation 2x Clotting time APTT (human plasma [2]),Human Plasma Anticoagulation 2x Clotting time PT (human plasma [4]),direct inhibition of thrombin (thrombin),anticoagulant in man [5]
"CCS(=O)(=O)N[C@H](Cc1ccccc1)C(=O)N1CCC[C@H]1C(=O)NCCc1ccc(C(=N)N)cc1 [Example 26, EtSO2 -D-Phe-Pro-p-NHCH2 CH2 -C6 H4 C(=NH)NH2.HCl]",NC^1,–,–,–,37 ng/mL,870 ng/mL,750 ng/mL,–,–
"N=C(N)C1=CNC(CNC(=O)[C@@H]2CCCN2C(=O)[C@@H](CC2CCCCC2)NCC(=O)O)CC1 (stereo partly drawn) [Example 68, N-(carboxymethyl)-D-cyclohexylalanyl-N-[[5-(aminoiminomethyl)-1,2,3,4-tetrahydropyridin-2-yl]methyl]L-prolinamide hydrochloride]",–,–,–,very weak inhibition,4 ng/mL,49 ng/mL,190 ng/mL,–,–
